These results are taken from US20240124469A1, “PIM KINASE INHIBITOR” (Hangzhou Biosun Pharmaceutical Co., Ltd., priority 2021, published 2024).

Each structure is given as a SMILES string. A value given as a limit tells only on which side of the number the result lay.

One assay concerns the target PIM3 (Homo sapiens (Human), UniProt Q86V86). The experiment in a line: PIM3 kinase activity test (Mobility shift assay). The class given is biochemical. As for the experimental part: (§1) The efficacy of the compounds on the activity of PIM1/2/3 was tested by utilizing the Mobility shift assay method, with the specific procedures shown as follows: the test compounds were each dissolved in DMSO to be prepared into a 10 mM stock solution; for each of the test compounds, the stock solution was subjected to a 3-fold dilution from an initial concentration of 10 μM to obtain 10 concentrations.
(§2) PIM1, PIM2, and PIM3 (all three kinases are from Carna) were each prepared with 1× Kinase buffer into a kinase solution at a concentration that was 2.5 times the final concentration. 10 μL of kinase solution at a concentration that was 2.5 times the final concentration was added to each of the compound wells and the positive control well, and 10 μL of 1× Kinase buffer was added to the negative control well. The plate was centrifuged at 1000 rpm for 30 s, mixed well by shaking, and then incubated at room temperature for 10 min. A mixed solution of ATP and Kinase substrate 20 (from GL) at a concentration that was 25/15 times the final concentration was prepared with 1× Kinase buffer. The reaction was started by adding 15 μL of the mixed solution of ATP and Kinase substrate 20 at a concentration that was 25/15 times the final concentration. The 384-well plate was centrifuged at 1000 rpm for 30 s, mixed well by shaking, and then incubated at room temperature for 60 min. 30 μL of stop assay buffer was added to stop the kinase reaction. The plate was centrifuged at 1000 rpm for 30 s and mixed well by shaking. The conversion rates were read using Caliper EZ Reader.
(§3) The IC50 values of the test compounds for kinase activity were obtained by adopting a fitted dose-response curve of analytic software GraphPad Prism 5.

For a further assay, the target named is PIM1 (Homo sapiens (Human), UniProt P11309). The experiment in a line: PIM1 kinase activity test (Mobility shift assay). The class given is biochemical. On the procedure:
as §1, §2, §3

The target in the next assay is PIM2 (Homo sapiens (Human), UniProt Q9P1W9). Nature of the assay: PIM2 kinase activity test (Mobility shift assay). The format is biochemical. On the procedure: as §1, §2, §3
A further assay concerns Ba/F3-EPOR-JAK2-V617F. Nature of the assay: Cell inhibitory activity test (72 h CTG). The format is cell-based. On the procedure: The EPOR-JAK2-V617F gene was transferred into Ba/F3 wild-type cells by a retrovirus packaging system to obtain a stably transfected cell line Ba/F3-EPOR-JAK2-V617F, which was used for the cell inhibitory activity ICso test of the compounds (reference: Blood. 2010; 115(15): 3109-3117). The specific procedures were as follows: • Cells were seeded in a 96-well plate, treated with the test compounds from DMSO stock solutions (final concentration of DMSO is 0.2%), and cultured at 37° C. with 5% CO2 for 72 h. Then, the cell proliferation inhibitory activity was assayed by the CTG (Cell-Titer Glo) method. For each of the test compounds, the stock solution was subjected to a 3-fold dilution from an initial concentration of 10 μM to obtain 9 concentrations. The dose-response relationship curve was fitted by using Graphpad 7.0 analysis software, and IC50 values were obtained.

Sequence of PIM1 (P11309 whole entry): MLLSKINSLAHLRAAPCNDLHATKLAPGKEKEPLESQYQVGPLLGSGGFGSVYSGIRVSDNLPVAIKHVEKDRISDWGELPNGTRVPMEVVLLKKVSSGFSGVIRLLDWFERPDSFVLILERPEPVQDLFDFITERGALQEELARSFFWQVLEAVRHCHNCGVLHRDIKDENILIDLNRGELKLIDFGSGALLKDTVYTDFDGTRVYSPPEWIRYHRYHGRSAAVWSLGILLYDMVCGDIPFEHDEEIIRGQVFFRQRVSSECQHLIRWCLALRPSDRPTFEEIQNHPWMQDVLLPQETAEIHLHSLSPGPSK
Sequence of PIM2 (Q9P1W9 whole entry): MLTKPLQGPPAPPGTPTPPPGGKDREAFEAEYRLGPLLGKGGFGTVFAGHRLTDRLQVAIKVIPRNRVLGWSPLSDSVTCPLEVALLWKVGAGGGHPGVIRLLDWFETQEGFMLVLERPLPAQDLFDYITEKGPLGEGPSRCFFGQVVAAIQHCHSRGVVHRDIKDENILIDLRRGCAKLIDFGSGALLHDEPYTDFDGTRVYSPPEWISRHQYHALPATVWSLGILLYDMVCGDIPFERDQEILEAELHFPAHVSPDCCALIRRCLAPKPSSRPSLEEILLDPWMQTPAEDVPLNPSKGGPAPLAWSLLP

Usually IC50 stands for the midpoint of a concentration-inhibition curve. With `FC(F)(F)c1cccc(-c2cnc3ccc(NC4CCCNCC4)nn23)c1` (stereo not shown) [Compound 19, N-(azepan-4-yl)-3-[3-(trifluoromethyl)phenyl]imidazo[1,2-b]pyridazin-6-amine], the 50% inhibitory concentration (IC50) fell in the range of 10 to 100 nM at PIM3, 2 to 10 nM at PIM1 and 100 to 1000 nM on PIM2.

With `FC(F)(F)c1cccc(-c2cnc3ccc(NCC4CC5(CCNCC5)C4)nn23)c1` [Compound 15, N-(7-azaspiro [3.5]nonan-2-ylmethyl)-3-[3-(trifluoromethyl)phenyl]imidazo[1,2-b]pyridazin-6-amine], the concentration for half-maximal inhibition (IC50) on PIM3 lay within 100 to 1000 nM; on PIM1, 10 to 100 nM; on PIM2 it was 1000 to 10000 nM.

Turning to `CC(C)(O)[C@H]1CC[C@H](Nc2ccc3nc(C#N)c(-c4cccc(C(F)(F)F)c4)n3n2)CC1` [Compound 43, 6-(((1r,4r)-4-(2-hydroxypropan-2-yl)cyclohexyl)amino)-3-(3-(trifluoromethyl)phenyl)imidazo[1,2-b] pyridazine-2-carbonitrile], the values for the 50% inhibitory concentration (IC50) on PIM3, at PIM1 and at PIM2 were above 10000 nM, 100 to 1000 nM and above 10000 nM, respectively.

As for `O[C@H]1CCC[C@@H](Nc2ccc3ncc(-c4cccc(C(F)(F)F)c4)n3n2)CC1` (relative stereo) [Compound 23, cis-4-[[3-[3-(trifluoromethyl)phenyl]imidazo[1,2-b]pyridazin-6-yl]amino]cycloheptanol], the half-inhibitory concentration (IC50) was 1000 to 10000 nM on PIM3, 100 to 1000 nM on PIM1 and above 10000 nM at PIM2.

As for `CN1CCC2(CC1)CC(Nc1ccc3ncc(-c4cccc(C(F)(F)F)c4)n3n1)C2` [Compound 26, N-(7-methyl-7-azaspiro[3.5]nonan-2-yl)-3-(3-(trifluoromethyl)phenyl)imidazo[1,2-b]pyridazin-6-amine], the IC50 is 100 to 1000 nM at PIM3, 10 to 100 nM at PIM1 and 1000 to 10000 nM on PIM2.

Take `FC(F)(F)c1cccc(-c2cnc3ccc(NC4CC5(CCNCC5)C4)nn23)c1` [Compound 16, N-(7-azaspiro[3.5]nonan-2-yl)-3-[3-(trifluoromethyl)phenyl]imidazo[1,2-b]pyridazin-6-amine]: the half-maximal inhibitory concentration (IC50) in the assay with Ba/F3-EPOR-JAK2-V617F is above 150 nM; at PIM3, 10 to 100 nM; on PIM1, 2 to 10 nM; on PIM2, 100 to 1000 nM.

In the case of `O[C@@H]1CCC[C@@H](Nc2ccc3ncc(-c4cccc(C(F)(F)F)c4)n3n2)CC1` [Compound 45, (1R,4R)-4-((3-(3-(trifluoromethyl)phenyl)imidazo[1,2-b]pyridazin-6-yl)amino)cycloheptanol], the half-maximal inhibitory concentration (IC50) lay within 1000 to 10000 nM on PIM3, 10 to 100 nM at PIM1 and 1000 to 10000 nM on PIM2.

In the case of `OC[C@H]1CC[C@H](Nc2ccc3ncc(-c4ccc(C(F)(F)F)s4)n3n2)CO1` [Compound 47, [(2R,5S)-5-[[3-[5-(trifluoromethyl)-2-thienyl]imidazo[1,2-b]pyridazin-6-yl]amino]tetrahydropyran-2-yl]methanol], the figures for the IC50 at PIM3, at PIM1 and at PIM2 were 1000 to 10000 nM, 10 to 100 nM and above 10000 nM, respectively.

Consider `CC(C)(O)[C@H]1CC[C@H](Nc2ccc3ncc(-c4nccs4)n3n2)CC1` [Compound 17, 2-[(1r,4r)-4-[(3-thiazol-2-ylimidazo[1,2-b]pyridazin-6-yl)amino]cyclohexyl]propan-2-ol], for which the IC50 on PIM3, at PIM1 and at PIM2 was 100 to 1000 nM in each case.

`CN1CCC(CNc2ccc3ncc(-c4cccc(N(C)C)c4)n3n2)CC1` [Compound 50, 3-(3-(dimethylamino)phenyl)-N-((1-methylpiperidin-4-yl)methyl)imidazo[1,2-b]pyridazin-6-amine]: the IC50 at PIM3 is 1000 to 10000 nM; at PIM1, 100 to 1000 nM; at PIM2, above 10000 nM.

Consider `OC[C@H]1CC[C@H](Nc2ccc3ncc(-c4cccc(C(F)(F)F)c4)n3n2)CO1` [Compound 25, [(2R,5S)-5-[[3-[3-(trifluoromethyl)phenyl]imidazo[1,2-b]pyridazin-6-yl]amino]tetrahydropyran-2-yl]methanol], for which the IC50 at PIM3 is 1000 to 10000 nM; at PIM1, 100 to 1000 nM; on PIM2 it was above 10000 nM.

Regarding `CN1CCCC(Nc2ccc3ncc(-c4cccc(C(F)(F)F)c4)n3n2)CC1` (stereo not shown) [Compound 27, N-(1-methylazacycloheptan-4-yl)-3-[3-(trifluoromethyl)phenyl]imidazo[1,2-b]pyridazin-6-amine], the half-maximal inhibitory concentration (IC50) lay within 100 to 1000 nM on PIM3, 10 to 100 nM on PIM1 and 100 to 1000 nM on PIM2.

On to `CC(C)(O)[C@H]1CC[C@H](Nc2ccc3ncc(-c4cccs4)n3n2)CC1` [Compound 14, 2-[(1r,4r)-4-[[3-(2-thienyl)imidazo[1,2-b]pyridazin-6-yl]amino]cyclohexyl]propan-2-ol], for which the IC50 on PIM3 lay within 100 to 1000 nM; at PIM1, 10 to 100 nM; at PIM2, 100 to 1000 nM.

`O[C@@H]1CCCC[C@@H](Nc2ccc3ncc(-c4cccc(C(F)(F)F)c4)n3n2)C1` [Compound 44, (1R,3R)-3-((3-(3-(trifluoromethyl)phenyl)imidazo[1,2-b]pyridazin-6-yl)amino)cycloheptanol]: the half-inhibitory concentration (IC50) on PIM3 was above 10000 nM; on PIM1 it was 100 to 1000 nM; on PIM2, above 10000 nM.

Consider `CC(C)(O)[C@H]1CC[C@H](Nc2ccc3ncc(-c4cccc(-c5ccco5)c4)n3n2)CC1` [Compound 48, 2-((1r,4r)-4-((3-(3-(furan-2-yl)phenyl)imidazo[1,2-b]pyridazin-6-yl)amino)cyclohexyl)propan-2-ol], for which the figures for the IC50 at PIM3, on PIM1 and on PIM2 were 100 to 1000 nM, 10 to 100 nM and above 10000 nM, respectively.

Consider `OC[C@@H]1CC[C@@H](Nc2ccc3ncc(-c4cccc(C(F)(F)F)c4)n3n2)CO1` [Compound 22, [(2S,5R)-5-[[3-[3-(trifluoromethyl)phenyl]imidazo[1,2-b]pyridazin-6-yl]amino]tetrahydropyran-2-yl]methanol], for which the IC50 at PIM3 was 1000 to 10000 nM; at PIM1, 10 to 100 nM; on PIM2 it was 1000 to 10000 nM.

For `O[C@H]1CCCC[C@@H](Nc2ccc3ncc(-c4cccc(C(F)(F)F)c4)n3n2)C1` [Compound 21, (1S,3R)-3-[[3-[3-(trifluoromethyl)phenyl]imidazo[1,2-b]pyridazin-6-yl]amino]cycloheptanol], the IC50 on PIM3 was 1000 to 10000 nM; on PIM1, 100 to 1000 nM; on PIM2, 1000 to 10000 nM.

`FC(F)(F)c1cccc(-c2cnc3ccc(NC4CC5(CCNC5)C4)nn23)c1` (stereo not shown) [Compound 24, N-(6-azaspiro [3.4]octan-2-yl)-3-(3-(trifluoromethyl)phenyl)imidazo[1,2-b]pyridazin-6-amine]: the IC50 at PIM3 fell in the range of 100 to 1000 nM; at PIM1 it was 100 to 1000 nM; on PIM2 it was 1000 to 10000 nM.

On to `FC(F)(F)c1cccc(-c2cnc3ccc(NCC4CC5(CCNC5)C4)nn23)c1` (stereo not shown) [Compound 18, N-(6-azaspiro[3.4]octan-2-ylmethyl)-3-(3-(trifluoromethyl)phenyl)imidazo[1,2-b]pyridazin-6-amine], for which the IC50 at PIM3 was in the range of 100 to 1000 nM; on PIM1, 10 to 100 nM; on PIM2, 100 to 1000 nM.

`CC(C)(O)[C@H]1CC[C@H](Nc2ccc3ncc(-c4cccc(S(C)(=O)=O)c4)n3n2)CC1` [Compound 51, 2-[(1r,4r)-4-[[3-(3-methylsulfonylphenyl)imidazo[1,2-b]pyridazin-6-yl]amino]cyclohexyl]propan-2-ol]: the results for the concentration for half-maximal inhibition (IC50) on PIM3, at PIM1 and on PIM2 were above 10000 nM, 100 to 1000 nM and 1000 to 10000 nM, respectively.

For `CC(C)(O)[C@H]1CC[C@H](Nc2ccc3nc(C(=O)O)c(-c4cccc(C(F)(F)F)c4)n3n2)CC1` [Compound 42, 6-(((1r,4r)-4-(2-hydroxypropan-2-yl)cyclohexyl)amino)-3-(3-(trifluoromethyl)phenyl)imidazo[1,2-b]pyridazine-2-carboxylic acid], the IC50 is 1000 to 10000 nM on PIM3, 100 to 1000 nM at PIM1 and above 10000 nM at PIM2.

On to `FC(F)(F)c1cccc(-c2cnc3ccc(NC4CC5(CCN(C6CC6)CC5)C4)nn23)c1` [Compound 30, N-(7-cyclopropyl-7-azaspiro [3.5]nonan-2-yl)-3-(3-(trifluoromethyl)phenyl)imidazo[1,2-b]pyridazin-6-amine], for which the values for the IC50 on PIM3, at PIM1 and at PIM2 were 1000 to 10000 nM, 10 to 100 nM and above 10000 nM, respectively.
